{"source": "patent US6537988B2", "about": "“Synergistic methods and compositions for treating cancer” (Bristol-Myers Squibb Company, priority 2000, dated 2003)", "key": {"[1]": {"assay": "Maximum tolerated dose / regimen in tumor-bearing mice", "assay_type": "in vivo, nude mice", "source_text": "The maximum tolerated dose (MTD) is defined as the dose level immediately above which excessive toxicity (i.e. more than one death) occurred. […] Activity is described at the OD."}, "[2]": {"system": "HCTVM46 human colon carcinoma", "assay": "Multidrug-resistant HCT/VM46 xenograft (FIGS. 13, 14)", "conditions": "single agents or Compound 1 followed 24 hr later with Compound 2", "protocol": "(§1) Tumor response was determined by measurement of tumors with a caliper twice a week until the tumors reached a predetermined “target” size of 0.5 or 1.0 g. Tumor weights (mg) were estimated from the formula:\n(§2) Tumor response end-point was expressed in terms of tumor growth delay (T-C value), defined as the difference in time (days) required for the treated tumors (T) to reach a predetermined target size compared to those of the control group (C).\n(§3) A tumor is defined as “cured” when there is no detectable disease at the time of study termination (Day >75 days post-tumor implantation); the interval between study termination and the end of drug treatment always exceeded 10 times the volume doubling time of any particular tumor type."}, "[3]": {"system": "HCT-116 human colon carcinoma cells", "assay": "Clonogenic cell colony-formation assay, stationary vs log phase cells", "conditions": "for cytotoxicity against non-proliferating stationary cells: HCT-116, paclitaxel at concentrations as high as 162 nM; for fold less sensitive: cells in exponential growth (Day 2) vs stationary phase (Day 8) / fold more sensitive: cells in exponential growth (Day 2) vs stationary phase (Day 8): HCT-116 in vitro, figure legends", "protocol": "(§4) At the end of a 16 h drug exposure, monolayer cell cultures were dissociated by exposing the cells to 0.05% trypsin for 5 min at 37° C. Cells were resuspended in complete media (containing 10% FBS), counted with a Coulter Channelyzer, diluted and plated with 5 replicates per dilution, into plastic tissue culture petri dishes. The cells were incubated in a humidified atmosphere for 10 days at 37° C. Cell colonies were stained with crystal violet and those with >50 cells per colony were scored."}, "[4]": {"system": "advanced HCT116 human colon carcinoma", "conditions": "dose 30 mg/kg/inj; IV, Q2D × 5", "protocol": "as §1, §2"}, "[5]": {"system": "A2780 human ovarian cancer cells", "assay": "Colony formation of A2780 cells, CDK inhibitor plus Compound 2", "assay_type": "cell-based", "conditions": "1.5 μM, 4 hour treatment"}, "[6]": {"system": "HCT-116 human colon carcinoma cells", "protocol": "as §4"}, "[7]": {"system": "HT-29 human colon carcinoma", "assay": "Advanced HT-29 xenograft, gemcitabine plus Compound 2", "assay_type": "in vivo, nude mice", "source_text": "The agent primarily kills cells undergoing DNA synthesis (S-phase) and also blocks the progression of cells through the G1/S-phase boundary."}, "[8]": {"system": "Her-1 activated SAL-2 cancer cell line", "assay_type": "cell-based", "conditions": "20 hours exposure", "protocol": "FIG. 18A: Clonogenic survival of the SAL-2 cell line following exposure to paclitaxel for 20 hours at the indicated concentrations."}, "[9]": {"system": "HCT116 human colon carcinoma", "conditions": "Compound 2 125 mpk 24 h iv infusion; paclitaxel 24 mg/kg iv; alone or combined", "protocol": "as §1, §2"}, "[10]": {"system": "advance HCT116 human colon carcinoma", "conditions": "dose 20 mg/kg/inj, IV, Q7D × 4", "protocol": "Paclitaxel was administered IV at 20 mg/kg/inj, Q7D×4.\nas §1, §2, §3"}, "[11]": {"system": "MCF-7 estrogen-dependent human breast carcinoma", "assay": "MCF-7 xenograft, tamoxifen plus Compound 2", "assay_type": "in vivo, nude mice", "conditions": "tamoxifen 40 mpk PO Q2D×14, Compound 2 po 100 mpk qd×10, two courses", "experimental": "Tamoxifen was administered PO, Q2D×14.\nThe majority of human breast cancers require estrogen for growth and tumor progression (estrogen-dependent). […] In order to assess the efficacy of the combined anti-cancer agents of the invention in a human breast cancer model, MCF-7 xenografts were grown in nude mice and treated as described herein."}, "[12]": {"conditions": "IC90 Log / IC90 Stationary, HCT116"}, "[13]": {"conditions": "read-out: IC90 Log (converted), log phase (proliferating) HCT116 cells, 16 h drug exposure"}, "[14]": {"conditions": "read-out: IC90 Stationary, stationary phase (non-proliferating, Day 8) HCT116 cells, 16 h drug exposure"}, "[15]": {"conditions": "read-out: IC90 Log (converted), log phase (proliferating) HCT116 cells"}, "[16]": {"conditions": "read-out: IC90 Stationary, stationary phase (non-proliferating) HCT116 cells"}}, "note": "Entries after “also recorded” stand apart in the source; their conditions may differ. Where two headings read alike, the source gives them in different places.", "data": [{"smiles": "C/C(=C\\c1csc(C)n1)[C@@H]1C[C@@H]2O[C@]2(C)CCC[C@H](C)[C@H](O)[C@@H](C)C(=O)C(C)(C)[C@@H](O)CC(=O)N1", "note": "(relative stereo) [Compound 1, [1S-[1R*,3R*(E),7R*,10S*,11R*,12R*,16S*]]-7,11-dihydroxy-8,8,10,12,16-pentamethyl-3-[1-methyl-2-(2-methyl-4-thiazolyl)ethenyl]-4-aza-17-oxabicyclo[14.1.0]heptadecane-5,9-dione]", "values": [{"measurement": "maximum tolerated regimen", "setting": "[1]; HCTVM46 study FIG. 13, single agents, q4d×3", "result": 15, "unit": "mg/kg"}, {"measurement": "maximum tolerated regimen", "setting": "[1]; HCTVM46 study FIG. 14, Compound 1 iv q4d×3, Compound 2 ip q4d×3, single agents", "result": 10, "unit": "mg/kg"}, {"measurement": "tumor cure", "setting": "[2]", "result": "did not induce tumor cure"}, {"measurement": "log cell kill", "setting": "[2]; maximum tolerated regimens, q4d×3", "result": 1.6, "unit": "LCK"}]}, {"smiles": "O=c1[nH]cc(F)c(=O)[nH]1", "note": "[5-Fluorouracil, 5-fluorouracil]", "values": [{"measurement": "cytotoxicity against non-proliferating stationary cells", "setting": "[3]", "result": "essentially ineffective"}, {"measurement": "Non-proliferative cells selectivity ratio (fold)", "setting": "[3]; [12]", "result": "<0.03", "unit": "fold"}, {"measurement": "IC90 Log", "setting": "[3]; log phase HCT116 cells", "result": ">162", "unit": "μg/ml"}, {"measurement": "IC90 Stationary", "setting": "[3]; stationary phase HCT116 cells", "result": 4.6, "unit": "µg/mL"}]}, {"smiles": "CCc1c2c(nc3ccc(OC(=O)N4CCC(N5CCCCC5)CC4)cc13)-c1cc3c(c(=O)n1C2)COC(=O)[C@]3(O)CC", "note": "[CPT-11]", "values": [{"measurement": "MTD", "setting": "[1]; CPT-11 IV (Q2D × 5), HCT116 study", "result": "~30", "unit": "mg/kg/inj"}, {"measurement": "Tumor Response CR (%)", "setting": "[4]", "result": 0, "unit": "%"}, {"measurement": "Tumor Response LCK", "setting": "[4]", "result": 1.5}, {"measurement": "Tumor Response PR (%)", "setting": "[4]", "result": 50, "unit": "%"}]}, {"smiles": "CC(O)(CS(=O)(=O)c1ccc(F)cc1)C(=O)Nc1ccc(C#N)c(C(F)(F)F)c1", "note": "(centres unmarked) [Casodex®, bicalutamide]", "values": [{"measurement": "maximum tolerated doses and regimens", "setting": "[1]; Pca-2b-AI study, Compound 2 po q1D×10, Casodex® po q1D×4", "result": 150, "unit": "mpk"}]}, {"smiles": "CCCCS(=O)(=O)N1Cc2cc(C#N)ccc2N(Cc2c[nH]cn2)C[C@H]1Cc1ccccc1", "note": "[Compound 3, (R)-4-(butylsulfonyl)-7-cyano-2,3,4,5-tetrahydro-1-(1H-imidazol-4-ylmethyl)-3-(phenylmethyl)-1H-1,4-benzodiazepine]", "values": [{"measurement": "Non-proliferative cells selectivity ratio (fold)", "setting": "[3]; [12]", "result": 181.0, "unit": "fold"}, {"measurement": "IC90", "setting": "[3]; [13]", "result": 65000, "unit": "nM"}, {"measurement": "IC90", "setting": "[3]; [14]", "result": 360, "unit": "nM"}]}, {"smiles": "COCCCS(=O)(=O)N1Cc2cc(C#N)ccc2N(Cc2c[nH]cn2)C[C@H]1Cc1ccccc1", "note": "[Compound 4, (R)-4-(3-methoxypropylsulfonyl)-7-cyano-2,3,4,5-tetrahydro-1-(1H-imidazol-4-ylmethyl)-3-(phenylmethyl)-1H-1,4-benzodiazepine]", "values": [{"measurement": "fold less sensitive: cells in exponential growth (Day 2) vs stationary phase (Day 8)", "setting": "[3]", "result": "~91.2", "unit": "fold"}, {"measurement": "Non-proliferative cells selectivity ratio (fold)", "setting": "[3]; [12]", "result": 86.9, "unit": "fold"}, {"measurement": "IC90", "setting": "[3]; [13]", "result": 91200, "unit": "nM"}, {"measurement": "IC90", "setting": "[3]; [14]", "result": 1050, "unit": "nM"}]}, {"smiles": "N#Cc1ccc2c(c1)CN(S(=O)(=O)c1ccc(Br)s1)[C@H](Cc1ccccc1)CN2Cc1c[nH]cn1", "note": "[Compound 5, (R)-4-[(5-bromo-2-thienyl)sulfonyl]-7-cyano-2,3,4,5-tetrahydro-1-(1H-imidazol-4-ylmethyl)-3-(phenylmethyl)-1H-1,4-benzodiazepine]", "values": [{"measurement": "Non-proliferative cells selectivity ratio (fold)", "setting": "[3]; [12]", "result": 78.4, "unit": "fold"}, {"measurement": "IC90", "setting": "[3]; [13]", "result": 84700, "unit": "nM"}, {"measurement": "IC90", "setting": "[3]; [14]", "result": 1080, "unit": "nM"}]}, {"smiles": "N#Cc1ccc2c(c1)CN(S(=O)(=O)N1CCCCC1)[C@H](Cc1ccccc1)CN2Cc1c[nH]cn1", "note": "[Compound 6, (R)-7-cyano-2,3,4,5-tetrahydro-1-(1H-imidazol-4-ylmethyl)-3-(phenylmethyl)-4-(1-piperidinylsulfonyl)-1H-1,4-benzodiazepine]", "values": [{"measurement": "fold less sensitive: cells in exponential growth (Day 2) vs stationary phase (Day 8)", "setting": "[3]", "result": "~67", "unit": "fold"}, {"measurement": "Non-proliferative cells selectivity ratio (fold)", "setting": "[3]; [12]", "result": 64.2, "unit": "fold"}, {"measurement": "IC90", "setting": "[3]; [13]", "result": 66800, "unit": "nM"}, {"measurement": "IC90", "setting": "[3]; [14]", "result": 1040, "unit": "nM"}]}, {"smiles": "COc1ccc(S(=O)(=O)N2Cc3cc(C#N)ccc3N(Cc3c[nH]cn3)C[C@H]2Cc2ccccc2)cc1", "note": "[Compound 7, (R)-7-cyano-2,3,4,5-tetrahydro-1-(1H-imidazol-4-ylmethyl)-4-[(4-methoxyphenyl)sulfonyl]-3-(phenylmethyl)-1H-1,4-benzodiazepine]", "values": [{"measurement": "Non-proliferative cells selectivity ratio (fold)", "setting": "[3]; [12]", "result": 2.7, "unit": "fold"}, {"measurement": "IC90", "setting": "[3]; [13]", "result": 26000, "unit": "nM"}, {"measurement": "IC90", "setting": "[3]; [14]", "result": 9600, "unit": "nM"}]}, {"smiles": "CC(C)(C)c1cnc(CSc2cnc(NC(=O)C3CCNCC3)s2)o1", "note": "[Compound 9, N-[5-[[[5-(1,1-dimethylethyl)-2-oxazolyl]methyl]thio]-2-thiazolyl]-4-piperidinecarboxamide]", "values": [{"measurement": "effect of single agent", "setting": "[5]", "result": "no effect dose"}]}, {"smiles": "C/C(=C\\c1csc(C)n1)[C@@H]1C[C@@H]2O[C@]2(C)CCC[C@H](C)[C@H](O)[C@@H](C)C(=O)C(C)(C)[C@@H](O)CC(=O)O1", "note": "[Epothilone B, epothilone B]", "values": [{"measurement": "cytotoxicity against non-proliferating stationary cells", "setting": "[6]", "result": "essentially ineffective"}, {"measurement": "fold more sensitive: cells in exponential growth (Day 2) vs stationary phase (Day 8)", "setting": "[3]", "result": "> 83", "unit": "fold"}, {"measurement": "Non-proliferative cells selectivity ratio (fold)", "setting": "[3]; [12]", "result": "<0.01", "unit": "fold"}, {"measurement": "IC90", "setting": "[3]; [15]", "result": 1.3, "unit": "nM"}, {"measurement": "IC90", "setting": "[3]; [16]", "result": "> 108", "unit": "nM"}]}, {"smiles": "Nc1ccn([C@@H]2O[C@H](CO)[C@@H](O)C2(F)F)c(=O)n1", "note": "[Gemcitabine]", "values": [{"measurement": "response rate", "setting": "[7]; single agent gemcitabine 6 mg/kg/inj (so in the source)", "result": 25, "unit": "%"}, {"measurement": "response rate", "setting": "[7]; single agent gemcitabine 24 mg/kg/inj", "result": 0, "unit": "%"}, {"measurement": "MTD", "setting": "[1]; gemcitabine IV, Q2D×4, HT-29 study", "result": 36, "unit": "mg/kg/inj"}]}, {"smiles": "CC(=O)O[C@H]1C(=O)[C@@]2(C)[C@H]([C@H](OC(=O)c3ccccc3)[C@]3(O)C[C@H](OC(=O)[C@H](O)[C@@H](NC(=O)c4ccccc4)c4ccccc4)C(C)=C1C3(C)C)[C@]1(OC(C)=O)CO[C@@H]1C[C@@H]2O", "note": "[Paclitaxel, paclitaxel]", "values": [{"measurement": "sensitivity of exponentially growing SAL2 cells to single agent", "setting": "[8]", "result": "relatively resistant"}, {"measurement": "maximum tolerated regimen", "setting": "[1]; Pat-7 study, paclitaxel iv q3d×3, Compound 2 ip q3d×3", "result": 36, "unit": "mg/kg"}, {"measurement": "log cell kill", "setting": "[9]", "result": 0.6, "unit": "LCK"}, {"measurement": "Tumor Response CR (%)", "setting": "[10]", "result": 0, "unit": "%"}, {"measurement": "Tumor Response LCK", "setting": "[10]", "result": 2.5}, {"measurement": "Tumor Response PR (%)", "setting": "[10]", "result": 20, "unit": "%"}, {"measurement": "Tumor Response Cures (%)", "setting": "[10]; Day 77", "result": 0, "unit": "%"}, {"measurement": "Non-proliferative cells selectivity ratio (fold)", "setting": "[3]", "result": "<0.1", "unit": "fold"}, {"measurement": "cytotoxicity against non-proliferating stationary cells", "setting": "[3]", "result": "essentially ineffective; also recorded: completely non-toxic"}, {"measurement": "fold more sensitive: cells in exponential growth (Day 2) vs stationary phase (Day 8)", "setting": "[3]", "result": "> 10", "unit": "fold"}, {"measurement": "IC90", "setting": "[3]; [15]", "result": 17.8, "unit": "nM"}, {"measurement": "IC90", "setting": "[3]; [16]", "result": "> 162", "unit": "nM"}]}, {"smiles": "CC/C(=C(\\c1ccccc1)c1ccc(OCCN(C)C)cc1)c1ccccc1", "note": "[Tamoxifen]", "values": [{"measurement": "tumor remission / cures", "setting": "[11]", "result": "no cures were observed"}, {"measurement": "effect on tumor growth", "setting": "[11]; alone or combined", "result": "markedly more active"}]}]}
